Test results from ChEMBL document CHEMBL2029284, “Synthesis and biological evaluation of ticagrelor derivatives as novel antiplatelet agents” (2012).
Activity calls are given as the source filed them. The calls are words filed in the database; no cut-off is given here.

Test system: Rattus norvegicus
Experiment: Antiplatelet activity in Sprague-Dawley rat assessed as ex-vivo inhibition of ADP-induced platelet aggregation at 5 mg/kg, po at 0.5 hrs by Born's method relative to vehicle-treated control
Assay type: functional

## CCCSc1nc(N[C@@H]2C[C@H]2c2ccc(F)c(F)c2)c2nnn([C@@H]3C[C@H](OCCO)[C@@H](O)[C@H]3O)c2n1 [TICAGRELOR]
  inhibition in vivo at 5 mg/kg: 66.3%

## CCCSc1nc(N[C@@H]2C[C@H]2c2ccc(F)c(F)c2)c2nnn([C@@H]3C[C@H](OC(=O)OCC)[C@@H](O)[C@H]3O)c2n1
  inhibition in vivo at 5 mg/kg: 42.5%

## CCCSc1nc(N[C@@H]2C[C@H]2c2ccc(F)c(F)c2)c2nnn([C@@H]3C[C@H](OCCOC(=O)OCC)[C@@H](O)[C@H]3O)c2n1
  inhibition in vivo at 5 mg/kg: 47.7%

## CCCSc1nc(N[C@@H]2C[C@H]2c2ccc(F)c(F)c2)c2nnn([C@@H]3C[C@H](OC(=O)c4ccccc4)[C@@H](O)[C@H]3O)c2n1
  inhibition in vivo at 5 mg/kg: 20.1%

## CCCSc1nc(N[C@@H]2C[C@H]2c2ccc(F)c(F)c2)c2nnn([C@@H]3C[C@H](OC(=O)CC)[C@@H](O)[C@H]3O)c2n1
  inhibition in vivo at 5 mg/kg: 44.5%

## CCCSc1nc(N[C@@H]2C[C@H]2c2ccc(F)c(F)c2)c2nnn([C@@H]3C[C@H](OCCOC(=O)c4ccccc4)[C@@H](O)[C@H]3O)c2n1
  inhibition: inactive

## CCCSc1nc(N[C@@H]2C[C@H]2c2ccc(F)c(F)c2)c2nnn([C@@H]3C[C@H](OCCOC(=O)CCC)[C@@H](O)[C@H]3O)c2n1
  inhibition: inactive

## CCCSc1nc(N[C@@H]2C[C@H]2c2ccc(F)c(F)c2)c2nnn([C@@H]3C[C@H](O)[C@@H](O)[C@H]3O)c2n1
  inhibition in vivo at 5 mg/kg: 45.7%

## CCCSc1nc(N[C@@H]2C[C@H]2c2ccc(F)c(F)c2)c2nnn([C@@H]3C[C@H](OC(=O)C(C)(C)C)[C@@H](O)[C@H]3O)c2n1
  inhibition: inactive

## CCCSc1nc(N[C@@H]2C[C@H]2c2ccc(F)c(F)c2)c2nnn([C@@H]3C[C@H](OCCOC(=O)C(C)(C)C)[C@@H](O)[C@H]3O)c2n1
  inhibition in vivo at 5 mg/kg: 46.1%

## CCCSc1nc(N[C@@H]2C[C@H]2c2ccc(F)c(F)c2)c2nnn([C@@H]3C[C@H](OCCOC(=O)c4cccnc4)[C@@H](O)[C@H]3O)c2n1
  inhibition: inactive

## CCCSc1nc(N[C@@H]2C[C@H]2c2ccc(F)c(F)c2)c2nnn([C@@H]3C[C@H](OC(=O)CCC)[C@@H](O)[C@H]3O)c2n1
  inhibition in vivo at 5 mg/kg: 28.5%

## CCCSc1nc(N[C@@H]2C[C@H]2c2ccc(F)c(F)c2)c2nnn([C@@H]3C[C@H](OC(=O)OCC(C)C)[C@@H](O)[C@H]3O)c2n1
  inhibition in vivo at 5 mg/kg: 13.2%
